± gives the expanded uncertainty stated by the source.
How the values were obtained:
[1] = 101.33 kPa, Liquid; for viscosity: Concentric cylinders viscometry; for mass density: Vibrating tube method
[2] = refractive index (Na D-line) (dimensionless); conditions: 101.33 kPa, Liquid, Standard Abbe refractometry

CCn1cc[n+](C)c1.O=C([O-])[C@@H]1CCCN1 [1-ethyl-3-methyl-1H-imidazolium L-prolinate]
Conditions	mass density, [1] [kg/m3]	refractive index, [2]	viscosity, [1] [mPa·s]
293.15 K	1158.14 ± 2.6	1.51523 ± 0.00068	626.95 ± 23
298.15 K	1155.08 ± 2.6	1.51372 ± 0.00068	426.12 ± 14
303.15 K	1152 ± 2.5	1.51229 ± 0.00068	295.17 ± 8.4
308.15 K	1148.9 ± 2.5	1.51073 ± 0.00068	210.2 ± 5.2
313.15 K	1145.78 ± 2.5	1.50924 ± 0.00068	153.57 ± 3.4
318.15 K	1142.64 ± 2.5	1.50774 ± 0.00068	114.27 ± 2.3
323.15 K	1139.5 ± 2.5	1.50621 ± 0.00068	87.05 ± 1.6
328.15 K	1136.36 ± 2.5	1.50454 ± 0.00068	67.61 ± 1.2
333.15 K	1133.22 ± 2.5	1.5031 ± 0.00068	54.04 ± 0.92
338.15 K	1130.08 ± 2.4	–	43.43 ± 0.75
343.15 K	1126.93 ± 2.4	–	35.47 ± 0.61
348.15 K	1123.79 ± 2.4	–	29.36 ± 0.51
353.15 K	1120.63 ± 2.4	–	24.5 ± 0.42

CCn1cc[n+](C)c1.C[C@H](N)C(=O)[O-] [1-ethyl-3-methylimidazolium L-alaninate]
Conditions	mass density, [1] [kg/m3]	refractive index, [2]	viscosity, [1] [mPa·s]
293.15 K	1139.2 ± 2.5	1.50586 ± 0.00068	235.36 ± 6.1
298.15 K	1136.1 ± 2.5	1.5041 ± 0.00068	171.19 ± 3.9
303.15 K	1133 ± 2.5	1.50246 ± 0.00068	126.6 ± 2.6
308.15 K	1129.8 ± 2.4	1.50072 ± 0.00068	93.87 ± 1.8
313.15 K	1126.6 ± 2.4	1.49908 ± 0.00068	72.02 ± 1.3
318.15 K	1123.5 ± 2.4	1.49735 ± 0.00068	56.62 ± 0.97
323.15 K	1120.3 ± 2.4	1.49568 ± 0.00068	45.13 ± 0.78
328.15 K	1117.2 ± 2.4	1.49395 ± 0.00068	36.56 ± 0.63
333.15 K	1114 ± 2.4	1.49228 ± 0.00068	30.1 ± 0.52
338.15 K	1110.9 ± 2.4	–	25.02 ± 0.43
343.15 K	1107.8 ± 2.3	–	21.21 ± 0.37
348.15 K	1104.7 ± 2.3	–	18.05 ± 0.31
353.15 K	1101.6 ± 2.3	–	15.51 ± 0.27

CCn1cc[n+](C)c1.NCC(=O)[O-] [1-ethyl-3-methylimidazolium ammonioacetate]
Conditions	mass density, [1] [kg/m3]	refractive index, [2]	viscosity, [1] [mPa·s]
293.15 K	1158 ± 2.6	1.50628 ± 0.00068	80.37 ± 1.4
298.15 K	1154.7 ± 2.6	1.50473 ± 0.00068	61.51 ± 1.1
303.15 K	1151.6 ± 2.5	1.50313 ± 0.00068	47.75 ± 0.82
308.15 K	1148.5 ± 2.5	1.50154 ± 0.00068	37.79 ± 0.65
313.15 K	1145.3 ± 2.5	1.49988 ± 0.00068	30.31 ± 0.52
318.15 K	1142.2 ± 2.5	1.49827 ± 0.00068	24.89 ± 0.43
323.15 K	1139 ± 2.5	1.49657 ± 0.00068	20.64 ± 0.36
328.15 K	1135.8 ± 2.5	1.49488 ± 0.00068	17.33 ± 0.3
333.15 K	1132.7 ± 2.5	1.49321 ± 0.00068	14.72 ± 0.25
338.15 K	1129.5 ± 2.4	–	12.64 ± 0.22
343.15 K	1126.3 ± 2.4	–	10.94 ± 0.19
348.15 K	1123.2 ± 2.4	–	9.55 ± 0.17
353.15 K	1120.1 ± 2.4	–	8.38 ± 0.15

CC[n+]1ccn(C)c1.N[C@@H](CO)C(=O)[O-] [3-ethyl-1-methyl-1H-imidazolium L-serinate]
Conditions	mass density, [1] [kg/m3]	refractive index, [2]	viscosity, [1] [mPa·s]
293.15 K	1198.3 ± 2.8	1.51205 ± 0.00068	611.87 ± 23
298.15 K	1195.2 ± 2.8	1.51069 ± 0.00068	410.86 ± 13
303.15 K	1191.9 ± 2.7	1.50932 ± 0.00068	279.82 ± 7.8
308.15 K	1188.6 ± 2.7	1.50791 ± 0.00068	196.7 ± 4.7
313.15 K	1185.2 ± 2.7	1.50654 ± 0.00068	142.28 ± 3.1
318.15 K	1182 ± 3	1.50511 ± 0.00068	105.8 ± 2.1
323.15 K	1178.9 ± 2.7	1.50372 ± 0.00068	80.49 ± 1.4
328.15 K	1175.8 ± 2.7	1.50224 ± 0.00068	62.48 ± 1.1
333.15 K	1172.6 ± 2.6	1.50083 ± 0.00068	49.31 ± 0.85
338.15 K	1169.5 ± 2.6	–	39.63 ± 0.68
343.15 K	1166.3 ± 2.6	–	32.36 ± 0.56
348.15 K	1162.9 ± 2.6	–	26.82 ± 0.46
353.15 K	1159.8 ± 2.6	–	22.47 ± 0.39

From the NIST ThermoML archive (doi:10.1021/je2002368)
